Laboratory results taken from BindingDB's records for doi:10.1016/s0960-894x(02)00300-1 (University of Illinois At Chicago, 2002).

Molecular target: T1, Dimer of Gag-Pol polyprotein [501-599,Q508K,L534I,L564I,C568A,C596A] (Human immunodeficiency virus 1, UniProt P03367, C568A/C596A/L534I/L564I/Q508K)
T1 construct: 501-599
Test: Protease Inhibition Assay
Conditions: pH 6.4; 25 °C
Protocol: The Ki values were determined using fluorogenic substrate, 2-(aminobenzoyl)-Thr-Ile-Nle-Phe(p-NO2)-Gln-ArgNH2. A standard curve relating changes in fluorescent intensity to changes in concentration of product was used to convert fluorescent changes into molar velocities. The amount of cleavage was determined by HPLC.

Structure (SMILES)	Ki [nM]
C=CCCCCCCCC(OC(=O)N(CC=C)C[C@@H](O)[C@H](Cc1ccccc1)NC(=O)O[C@H]1CO[C@H]2OCC[C@H]21)c1ccccc1 (stereo partly drawn) [(3R,3aS,6aR)-hexahydrofuro[2,3-b]furan-3-yl N-[(2S,3R)-3-hydroxy-1-phenyl-4-({[(1-phenyldec-9-en-1-yl)oxy]carbonyl}(prop-2-en-1-yl)amino)butan-2-yl]carbamate]	> 1000
O=C(N[C@@H](Cc1ccccc1)[C@H](O)CN1CCCCCCCCC=CCCOC1=O)O[C@H]1CO[C@H]2OCC[C@H]21 [(3R,3aS,6aR)-hexahydrofuro[2,3-b]furan-3-yl N-[(2S,3R)-3-hydroxy-4-(2-oxo-1-oxa-3-azacyclopentadec-12-en-3-yl)-1-phenylbutan-2-yl]carbamate]	88
O=C(N[C@@H](Cc1ccccc1)[C@H](O)CN1CCCCCCCCCCCCOC1=O)O[C@H]1CO[C@H]2OCC[C@H]21 [(3R,3aS,6aR)-hexahydrofuro[2,3-b]furan-3-yl N-[(2S,3R)-3-hydroxy-4-(2-oxo-1-oxa-3-azacyclopentadecan-3-yl)-1-phenylbutan-2-yl]carbamate]	14
O=C(N[C@@H](Cc1ccccc1)[C@H](O)CN1CCCCCCCCCCCOC1=O)O[C@H]1CO[C@H]2OCC[C@H]21 [(3R,3aS,6aR)-hexahydrofuro[2,3-b]furan-3-yl N-[(2S,3R)-3-hydroxy-4-(2-oxo-1-oxa-3-azacyclotetradecan-3-yl)-1-phenylbutan-2-yl]carbamate]	80
O=C(N[C@@H](Cc1ccccc1)[C@H](O)CN1CCCCCCCCCCC(c2ccccc2)OC1=O)O[C@H]1CO[C@H]2OCC[C@H]21 (stereo partly drawn) [(3R,3aS,6aR)-hexahydrofuro[2,3-b]furan-3-yl N-[(2S,3R)-3-hydroxy-4-(2-oxo-14-phenyl-1-oxa-3-azacyclotetradecan-3-yl)-1-phenylbutan-2-yl]carbamate]	189
O=C(N[C@@H](Cc1ccccc1)[C@H](O)CN1CCCCCCCCC=CCC(c2ccccc2)OC1=O)O[C@H]1CO[C@H]2OCC[C@H]21 (stereo partly drawn) [(3R,3aS,6aR)-hexahydrofuro[2,3-b]furan-3-yl N-[(2S,3R)-3-hydroxy-4-(2-oxo-15-phenyl-1-oxa-3-azacyclopentadec-12-en-3-yl)-1-phenylbutan-2-yl]carbamate]	167
O=C(N[C@@H](Cc1ccccc1)[C@H](O)CN1CCCCCCCCCCCC(c2ccccc2)OC1=O)O[C@H]1CO[C@H]2OCC[C@H]21 (stereo partly drawn) [(3R,3aS,6aR)-hexahydrofuro[2,3-b]furan-3-yl N-[(2S,3R)-3-hydroxy-4-(2-oxo-15-phenyl-1-oxa-3-azacyclopentadecan-3-yl)-1-phenylbutan-2-yl]carbamate]	357
O=C(N[C@@H](Cc1ccccc1)[C@H](O)CN1CCCCC=CCCCCCCC(c2ccccc2)OC1=O)O[C@H]1CO[C@H]2OCC[C@H]21 (stereo partly drawn) [(3R,3aS,6aR)-hexahydrofuro[2,3-b]furan-3-yl N-[(2S,3R)-3-hydroxy-4-(2-oxo-16-phenyl-1-oxa-3-azacyclohexadec-8-en-3-yl)-1-phenylbutan-2-yl]carbamate]	162
O=C(N[C@@H](Cc1ccccc1)[C@H](O)CN1CCCCCCCCCCCCC(c2ccccc2)OC1=O)O[C@H]1CO[C@H]2OCC[C@H]21 (stereo partly drawn) [(3R,3aS,6aR)-hexahydrofuro[2,3-b]furan-3-yl N-[(2S,3R)-3-hydroxy-4-(2-oxo-16-phenyl-1-oxa-3-azacyclohexadecan-3-yl)-1-phenylbutan-2-yl]carbamate]	268
CC1CC=CCCCCCCCCOC(=O)N1C[C@@H](O)[C@H](Cc1ccccc1)NC(=O)O[C@H]1CO[C@H]2OCC[C@H]21 (stereo partly drawn) [(3R,3aS,6aR)-hexahydrofuro[2,3-b]furan-3-yl N-[(2S,3R)-3-hydroxy-4-(4-methyl-2-oxo-1-oxa-3-azacyclopentadec-6-en-3-yl)-1-phenylbutan-2-yl]carbamate]	53
CC1CCCCCCCCCCCOC(=O)N1C[C@@H](O)[C@H](Cc1ccccc1)NC(=O)O[C@H]1CO[C@H]2OCC[C@H]21 (stereo partly drawn) [(3R,3aS,6aR)-hexahydrofuro[2,3-b]furan-3-yl N-[(2S,3R)-3-hydroxy-4-(4-methyl-2-oxo-1-oxa-3-azacyclopentadecan-3-yl)-1-phenylbutan-2-yl]carbamate]	30
CC1CC=CCCCCCCCOC(=O)N(C[C@@H](O)[C@H](Cc2ccccc2)NC(=O)O[C@H]2CO[C@H]3OCC[C@H]32)C1 (stereo partly drawn) [(3R,3aS,6aR)-hexahydrofuro[2,3-b]furan-3-yl N-[(2S,3R)-3-hydroxy-4-(5-methyl-2-oxo-1-oxa-3-azacyclopentadec-7-en-3-yl)-1-phenylbutan-2-yl]carbamate]	11
CC1CCCCCCCCCCOC(=O)N(C[C@@H](O)[C@H](Cc2ccccc2)NC(=O)O[C@H]2CO[C@H]3OCC[C@H]32)C1 (stereo partly drawn) [(3R,3aS,6aR)-hexahydrofuro[2,3-b]furan-3-yl N-[(2S,3R)-3-hydroxy-4-(5-methyl-2-oxo-1-oxa-3-azacyclopentadecan-3-yl)-1-phenylbutan-2-yl]carbamate]	6.1
O=C(N[C@@H](Cc1ccccc1)[C@H](O)CN1C/C=C\CCCCCCCCOC1=O)O[C@H]1CO[C@H]2OCC[C@H]21 [(3R,3aS,6aR)-hexahydrofuro[2,3-b]furan-3-yl N-[(2S,3R)-3-hydroxy-4-[(5Z)-2-oxo-1-oxa-3-azacyclotetradec-5-en-3-yl]-1-phenylbutan-2-yl]carbamate]	125
O=C(N[C@@H](Cc1ccccc1)[C@H](O)CN1C/C=C\CCCCCCCC(c2ccccc2)OC1=O)O[C@H]1CO[C@H]2OCC[C@H]21 (stereo partly drawn) [(3R,3aS,6aR)-hexahydrofuro[2,3-b]furan-3-yl N-[(2S,3R)-3-hydroxy-4-[(5Z)-2-oxo-14-phenyl-1-oxa-3-azacyclotetradec-5-en-3-yl]-1-phenylbutan-2-yl]carbamate]	229
CC(C)(C)NC(=O)[C@@H]1C[C@@H]2CCCC[C@@H]2CN1C[C@@H](O)[C@H](Cc1ccccc1)NC(=O)O[C@H]1CO[C@H]2OCC[C@H]21 [(3R,3aS,6aR)-hexahydrofuro[2,3-b]furan-3-yl N-[(2S,3R)-4-[(3S,4aS,8aS)-3-(tert-butylcarbamoyl)-decahydroisoquinolin-2-yl]-3-hydroxy-1-phenylbutan-2-yl]carbamate]	2
C=CCCCCCCCCN(C[C@@H](O)[C@H](Cc1ccccc1)NC(=O)O[C@H]1CO[C@H]2OCC[C@H]21)C(=O)OC(CC=C)c1ccccc1 (stereo partly drawn) [(3R,3aS,6aR)-hexahydrofuro[2,3-b]furan-3-yl N-[(2S,3R)-4-[dec-9-en-1-yl({[(1-phenylbut-3-en-1-yl)oxy]carbonyl})amino]-3-hydroxy-1-phenylbutan-2-yl]carbamate]	> 1000
C=CCCCCCCC(OC(=O)N(CCCCC=C)C[C@@H](O)[C@H](Cc1ccccc1)NC(=O)O[C@H]1CO[C@H]2OCC[C@H]21)c1ccccc1 (stereo partly drawn) [(3R,3aS,6aR)-hexahydrofuro[2,3-b]furan-3-yl N-[(2S,3R)-4-[hex-5-en-1-yl({[(1-phenylnon-8-en-1-yl)oxy]carbonyl})amino]-3-hydroxy-1-phenylbutan-2-yl]carbamate]	444
C=CCCCCCCCCN(C[C@@H](O)[C@H](Cc1ccccc1)NC(=O)O[C@H]1CO[C@H]2OCC[C@H]21)C(=O)OCCC=C [but-3-en-1-yl N-[(2R,3S)-3-({[(3R,3aS,6aR)-hexahydrofuro[2,3-b]furan-3-yloxy]carbonyl}amino)-2-hydroxy-4-phenylbutyl]-N-(dec-9-en-1-yl)carbamate]	> 1000
C=CCCCCCCCCOC(=O)N(C[C@@H](O)[C@H](Cc1ccccc1)NC(=O)O[C@H]1CO[C@H]2OCC[C@H]21)C(C)CC=C (stereo partly drawn) [dec-9-en-1-yl N-[(2R,3S)-3-({[(3R,3aS,6aR)-hexahydrofuro[2,3-b]furan-3-yloxy]carbonyl}amino)-2-hydroxy-4-phenylbutyl]-N-(pent-4-en-2-yl)carbamate]	> 1000
C=CCCCCCCCCOC(=O)N(CC=C)C[C@@H](O)[C@H](Cc1ccccc1)NC(=O)O[C@H]1CO[C@H]2OCC[C@H]21 [dec-9-en-1-yl N-[(2R,3S)-3-({[(3R,3aS,6aR)-hexahydrofuro[2,3-b]furan-3-yloxy]carbonyl}amino)-2-hydroxy-4-phenylbutyl]-N-(prop-2-en-1-yl)carbamate]	> 1000
C=CCCCCCCCOC(=O)N(CC(C)CC=C)C[C@@H](O)[C@H](Cc1ccccc1)NC(=O)O[C@H]1CO[C@H]2OCC[C@H]21 (stereo partly drawn) [non-8-en-1-yl N-[(2R,3S)-3-({[(3R,3aS,6aR)-hexahydrofuro[2,3-b]furan-3-yloxy]carbonyl}amino)-2-hydroxy-4-phenylbutyl]-N-(2-methylpent-4-en-1-yl)carbamate]	> 1000
